Reference: patent EP0441226A1, “(cyanomethyl)pyridines useful as PAF antagonists” (J. URIACH & CIA. S.A., priority 1990, dated 1991)
Structures can show the parent of a compound that is named as a salt.

What follows are molecules tested on hypotension induced by PAF (assay: Inhibition of the hypotensive effect induced by PAF in normotense rats). Details: Rattus norvegicus, iv, read-out: ID50.
Assay type: in vivo, Sprage Dawley rats
Procedure: Inhibition of the hypotensive effect induced by PAF in normotense rats.
Male Sprage Dawley rats, of 180-220 g of weight, anesthetized with sodium pentobarbital (50 mg/Kg, i.p. 1 mU100 g) have been used. In order to measure the average arterial pressure, a polyethylene catheter is introduced into the carotid artery. The arterial pressure is recorded with the help of a transducer connected with a R611 Beckman polygraph. The tested compounds are administered through the femoral vein 3 min. before the injection of PAF (0.5 mcg/Kg, i.v.).
Molecule `N#CC(c1cccnc1)N1CCN(C(=O)Cc2cccc3ccccc23)CC1` (stereo not shown) [Compound 2, 1-(1-Naphthylacetyl)-4-(3-pyridylcyanomethyl)piperazine] has an ED50 of 1.3 mg/kg.
`N#CC(c1cccnc1)N1CCN(C(=O)Cc2ccccc2)CC1` (stereo not shown) [Compound 5, 1-(Phenylacetyl)-4-(3-pyridylcyanomethyl)piperazine] gave an ED50 of 1.5 mg/kg.
Molecule `Cl.Cl.Cl.N#CC(c1cccnc1)N1CCN(C(=O)Cc2c[nH]c3ccccc23)CC1` (stereo not shown) [Compound 33, 1-(3-indolylacetyl)-4-(3-pyridylcyanomethyl)piperazine, trihydrochloride] has an ED50 of 3.5 mg/kg.

Same assay, conditions: Rattus norvegicus, iv; i.v. (femoral vein) 3 min before PAF 0.5 mcg/Kg i.v.; anesthetized male rats; mean arterial pressure; read-out: ID50 (the source's name)
In the case of `Cl.Cl.N#CC(c1cccnc1)N1CCN(C(=O)c2ccc3ccccc3c2)CC1` (stereo not shown) [Compound 1, 1-(2-Naphthoyl)-4-(3-pyridylcyanomethyl)piperazine, dihydrochloride], the ED50 was 5 mg/kg.
`N#CC(c1cccnc1)N1CCN(C(=O)CCc2ccccc2)CC1` (stereo not shown) [Compound 6, 1-(3-Phenylpropanoyl)-4-(3-pyridylcyanomethyl)piperazine, dichlorhydrate] was tested, and the ED50 was 1.2 mg/kg.
Molecule `N#CC(c1cccnc1)N1CCN(C(=O)CCCc2ccccc2)CC1` (stereo not shown) [Compound 7, 1-(4-Phenylbutanoyl)-4-(3-pyridylcyanomethyl)piperazine] has an ED50 of 5 mg/kg.
`CC(C(=O)N1CCN(C(C#N)c2cccnc2)CC1)(c1ccccc1)c1ccccc1.Cl.Cl` (stereo not shown) [Compound 8, 1-(2,2-Diphenylpropanoyl)-4-(3-pyridylcyanomethyl)piperazine, dihydrochloride] was tested, and the ED50 was 0.14 mg/kg.
For `Cl.Cl.N#CC(c1cccnc1)N1CCN(C(=O)C(c2ccccc2)c2ccccc2)CC1` (stereo not shown) [Compound 9, 1-(Diphenylacetyl)-4-(3-pyridylcyanomethyl)piperazine, dihydrochloride], the ED50 was 0.11 mg/kg.
In the case of `N#CC(c1cccnc1)N1CCN(C(=O)C(Cc2ccccc2)c2ccccc2)CC1` (stereo not shown) [Compound 10, 1-(2,3-Diphenylpropanoyl)-4-(3-pyridylcyanomethyl)piperazine], the ED50 was 0.12 mg/kg.
`N#CC(c1cccnc1)N1CCN(C(=O)C(CCc2ccccc2)c2ccccc2)CC1` (stereo not shown) [Compound 11, 1-(2,4-Diphenylbutanoyl)-4-(3-pyridylcyanomethyl)piperazine] was tested, and the ED50 was 0.73 mg/kg.
`N#CC(c1cccnc1)N1CCN(C(=O)CC(c2ccccc2)c2ccccc2)CC1` (stereo not shown) [Compound 12, 1-(3,3-Diphenylpropanoyl)-4-(3-pyridylcyanomethyl)piperazine] gave an ED50 of 0.016 mg/kg.
Work on `N#CC(c1cccnc1)N1CCN(C(=O)C(Cc2ccccc2)Cc2ccccc2)CC1` (stereo not shown) [Compound 13, 1-(2-Phenylmethyl-3-phenylpropanoyl)-4-(3-pyridylcyanomethyl) piperazine, dichlorhydrate] yielded an ED50 of 0.68 mg/kg.
With `CC(C(=O)N1CCN(C(C#N)c2cccnc2)CC1)c1ccccc1.Cl.Cl` (stereo not shown) [Compound 14, 1-(2-Phenylpropanoyl)-4-(3-pyridylcyanomethyl)piperazine, dihydrochloride] the ED50 was 0.26 mg/kg.
Molecule `N#CC(c1cccnc1)N1CCN(C(=O)C=Cc2ccccc2)CC1` (stereo not shown) [Compound 15, 1-(3-Phenylpropenoyl)-4-(3-pyridylcyanomethyl)piperazine, dichlorhydrate] has an ED50 of 0.24 mg/kg.
Work on `N#CC(c1cccnc1)N1CCN(C(=O)C(=Cc2ccccc2)c2ccccc2)CC1` (stereo not shown) [Compound 16, 1-(2,3-Diphenylpropenoyl)-4(3-pyridylcyanomethyl)piperazine] yielded an ED50 of 0.17 mg/kg.
Molecule `N#CC(c1cccnc1)N1CCN(C(=O)C=C(c2ccccc2)c2ccccc2)CC1` (stereo not shown) [Compound 17, 1-(3,3-Diphenylpropenoyl)-4-(3-pyridylcyanomethyl)piperazine] has an ED50 of 0.049 mg/kg.
`CCCCCCCC(=O)N1CCN(C(C#N)c2cccnc2)CC1.Cl` (stereo not shown) [Compound 19, 1-(Octanoyl)-4-(3-pyridylcyanomethyl)piperazine hydrochloride] gave an ED50 of 1.2 mg/kg.
`COc1cc(C(=O)N2CCN(C(C#N)c3cccnc3)CC2)cc(OC)c1OC.Cl.Cl` (stereo not shown) [Compound 22, 1-(3,4,5-Trimethoxybenzoyl)-4-(3-pyridylcyanomethyl)piperazine, dihydrochloride] gave an ED50 of 4.3 mg/kg.
Molecule `COc1ccc(C(CC(=O)N2CCN(C(C#N)c3cccnc3)CC2)c2ccc(OC)cc2)cc1` (stereo not shown) [Compound 25, 1-(3,3-bis(4-methoxyphenyl)propanoyl)-4-(3-pyridylcyanomethyl) piperazine] has an ED50 of 0.19 mg/kg.
For `COc1ccc(C(=CC(=O)N2CCN(C(C#N)c3cccnc3)CC2)c2ccc(OC)cc2)cc1.Cl.Cl` (stereo not shown) [Compound 26, 1-(3,3-bis(4-methoxyphenyl)propenoyl)-4-(3-pyridylcyanomethyl)piperazine, dihydrochloride], the ED50 was 0.17 mg/kg.
`Cl.Cl.N#CC(c1cccnc1)N1CCN(C(=O)C(O)c2ccccc2)CC1` (stereo not shown) [Compound 27, 1-(2-phenyl-2-hydroxyacetyl)-4-(3-pyridylcyanomethyl)piperazine, dihydrochloride] gave an ED50 of 1.1 mg/kg.
In the case of `N#CC(c1cccnc1)N1CCN(C(=O)CC(O)(c2ccccc2)c2ccccc2)CC1` (stereo not shown) [Compound 28, 1-(3,3-Diphenyl-3-hydroxypropanoyl)-4-(3-pyridylcyanomethyl)piperazine], the ED50 was 0.061 mg/kg.
Work on `N#CC(c1ccncc1)N1CCN(C(=O)CC(O)(c2ccccc2)c2ccccc2)CC1` (stereo not shown) [Compound 29, 1-(3,3-Diphenyl-3-hydroxypropanoyl)-4-(4-pyridylcyanomethyl)piperazine] yielded an ED50 of 0.061 mg/kg.
Molecule `Cl.Cl.N#CC(c1cccnc1)N1CCN(C(=O)OCC(c2ccccc2)c2ccccc2)CC1` (stereo not shown) [Compound 31, 1-((2,2-diphenylethoxy)carbonyl)-4-(3-pyridylcyanomethyl)piperazine, dihydrochloride] has an ED50 of 0.078 mg/kg.
`Cl.Cl.Cl.N#CC(c1cccnc1)N1CCN(C(=O)CNc2cccc3ccccc23)CC1` (stereo not shown) [Compound 34, 1-(N-(1-naphthyl)aminoacetyl)-4-(3-pyridylcyanomethyl)piperazine, trihydrochloride] showed an ED50 of 3 mg/kg.
`N#CC(c1cccnc1)N1CCN(C(=O)CN(Cc2ccccc2)c2ccccc2)CC1` (stereo not shown) [Compound 38, 1-(N-benzyl-N-phenylaminoacetyl)-4-(3-pyridylcyanomethyl)piperazine] showed an ED50 of 0.42 mg/kg.
Work on `N#CC(c1cccnc1)N1CCN(C(=O)CN(CCCc2ccccc2)Cc2ccccc2)CC1` (stereo not shown) [Compound 41, 1-(N-benzyl-N-(3-phenylpropyl)aminoacetyl)-4-(3-pyridylcyanomethyl) piperazine, trihydrochloride] yielded an ED50 of 1.5 mg/kg.
`N#CC(c1cccnc1)N1CCN(C(=O)CNC(c2ccccc2)c2ccccc2)CC1` (stereo not shown) [Compound 44, 1-(N-(diphenylmethyl)aminoacetyl)-4-(3-pyridylcyanomethyl) piperazine, trihydrochloride] gave an ED50 of 0.023 mg/kg.
In the case of `CN(CC(=O)N1CCN(C(C#N)c2cccnc2)CC1)C(c1ccccc1)c1ccccc1` (stereo not shown) [Compound 45, 1-(N-diphenylmethyl-N-methylaminoacetyl)-4-(3-pyridylcyanomethyl) piperazine, trihydrochloride], the ED50 was 0.33 mg/kg.
Work on `N#CC(c1cccnc1)N1CCN(C(=O)CNC(c2ccccc2)c2ccc(Cl)cc2)CC1` (stereo not shown) [Compound 46, 1-(N-(1-(4-chlorophenyl)-1-phenylmethyl)aminoacetyl)-4-(3-pyridylcyanomethyl) piperazine, trihydrochloride] yielded an ED50 of 0.13 mg/kg.
Molecule `N#CC(c1cccnc1)N1CCN(C(=O)CCNC(c2ccccc2)c2ccccc2)CC1` (stereo not shown) [Compound 47, 1-(3-(N-(diphenylmethyl)amino)propanoyl)-4-(3-pyridylcyanomethyl) piperazine] has an ED50 of 0.025 mg/kg.
With `N#CC(c1ccncc1)N1CCN(C(=O)CCNC(c2ccccc2)c2ccccc2)CC1` (stereo not shown) [Compound 48, 1-(3-(N-(diphenylmethyl)amino)propanoyl)-4-(4-pyridylcyanomethyl)piperazine] the ED50 was 0.037 mg/kg.
In the case of `Cl.Cl.Cl.N#CC(c1cccnc1)N1CCN(C(=O)CN(Cc2ccccc2)Cc2ccccc2)CC1` (stereo not shown) [Compound 49, 1-(N,N-dibenzylaminoacetyl)-4-(3-pyridylcyanomethyl)piperazine, trihydrochloride], the ED50 was 1.7 mg/kg.
In the case of `Cl.Cl.Cl.N#CC(c1cccnc1)N1CCN(C(=O)CNC(Cc2ccccc2)c2ccccc2)CC1` (stereo not shown) [Compound 52, 1-(N-(1,2-diphenylethyl)aminoacetyl)-4-(3-pyridylcyanomethyl)piperazine, trihydrochloride], the ED50 was 0.34 mg/kg.
With `N#CC(c1ccncc1)N1CCN(C(=O)CNC(=O)C(c2ccccc2)c2ccccc2)CC1` (stereo not shown) [Compound 57, 1-(N-(diphenylacetyl)aminoacetyl)-4-(4-pyridylcyanomethyl)piperazine] the ED50 was 0.47 mg/kg.
For `N#CC(c1cccnc1)N1CCN(CCNC(=O)C(c2ccccc2)c2ccccc2)CC1` (stereo not shown) [Compound 62, 1-(2-(N-(diphenylacetyl)amino)ethyl)-4-(3-pyridylcyanomethyl)piperazine], the ED50 was 0.29 mg/kg.
`Cl.Cl.N#CC(c1ccncc1)N1CCN(C(=O)CC(c2ccccc2)c2ccccc2)CC1` (stereo not shown) [Compound 67, 1-(3,3-diphenylpropanoyl)-4-(4-pyridylcyanomethyl)piperazine, dihydrochloride] was tested, and the ED50 was 0.034 mg/kg.
